These results are taken from paper PMC12447640, “Design, synthesis, and biological assessment of a novel series of coumarin-tethered thiazole derivatives as potential antibacterial agents” (Frontiers in Chemistry, 2025).

The target in the assay is T1, DNA gyrase B (E. coli DNA gyrase, supercoiling) (Escherichia coli, UniProt P0AES6).
T1 construct: gene gyrB; with DNA gyrase subunit A (GyrA)
Description: E. coli DNA gyrase supercoiling microplate assay kit (Inspiralis). It is filed as biochemical.

A word on the IC50: it is the point on the concentration scale where inhibition reaches its midpoint.

The compound `CC(=NNc1nc(C)c(N=Nc2ccccc2)s1)c1cc2ccc(O)cc2oc1=O` [6a, 7-Hydroxy-3-(-1-{2-[4-methyl-5-(phenyldiazenyl)thiazol-2-yl]hydrazono}ethyl)-2H-chromen-2-one] showed an IC50 of 56.6 µM. Regarding `CC(=NNc1nc(C)c(N=Nc2ccc(F)cc2)s1)c1cc2ccc(O)cc2oc1=O` [6c, 3-(-1-{2-[5-((4-fluorophenyl)diazenyl)-4-methylthiazol-2-yl]hydrazono}ethyl)-7-hydroxy-2H-chromen-2-one], the IC50 was 93.4 µM.
